# Test results taken from PMC11982498 (Redox Biology, 2025).
# Where “and” joins values, the source holds several entries; their conditions need not be identical. Identical values can stand only once.
# Legend:
# ILPR promoter i-motif = assay: SPR binding to ILPR promoter i-motif; settings: MES buffer pH 5.5
# (G2C4)6 promoter i-motif = assay: SPR binding to (G2C4)6 promoter i-motif; settings: MES buffer pH 5.5
# BCL-2 promoter i-motif = assay: TO displacement assay, BCL-2 i-motif; type: binding; settings: BPES buffer pH 5.5
# Description: Figure S4. TO displacement and UV titration experiments were performed to examine the effects of B14 and A22 on BCL-2 promoter i-motif. (A-B) TO displacement was performed on BCL-2 promoter i-motif annealed in 1XBPES buffer at pH 5.5 with increasing amount of B14 and A22. (C) The above relative TO displacement ratio were statistically analyzed.
# DNA oligonucleotides were diluted to 1 μM with 1 × PBES buffer at pH 5.5, annealed at 95 °C for 10 min, cooled to room temperature, and stored at 4 °C for future use. TO dye (1 μM) was added to the DNA solution followed with incubation for 1 h. The spectra of 100 μL mixture with addition of different equivalent compounds at 25 °C were recorded based on fluorescence emission (λex = 480 nm).
# TO displacement ratio (%) = (F0 − FC) / (F0 − FB) * 100.
# F0 and FC were the fluorescence intensity of TO at 536 nm with DNA before and after adding compounds, respectively. FB was the fluorescence intensity of TO at 536 nm with buffer only.
# [1] = test system: BCL-2 promoter G-quadruplex; assay: CD melting experiment, BCL-2 G-quadruplex; type: binding; settings: Tris-HCl buffer pH 7.4; 20 equivalents (20 μM) compound
# Description: CD-melting experiment was carried out following a published method without significant modification. BCL-2 promoter i-motif and G-quadruplex structures at a concentration of 5 μM were annealed in buffer at 95 °C for 10 min, and then cooled to room temperature. The annealed samples were incubated with B14 for 6 h, and then molar ellipticity at 287 nm for i-motif structure or 260 nm for G-quadruplex structure, where the CD value was the highest in our experiment, was measured over a temperature range of 20–90 °C at a heating rate of 0.5 °C/min. Tm values were determined and calculated through nonlinear regression curve fitting with software GraphPad Prism 9.0. (GraphPad Software Inc., California, USA).
# Figure S6. CD melting experiments were performed to examine the effects of B14 and A22 on BCL-2 promoter i-motif and G-quadruplex. (A-H) CD melting experiments were performed for BCL-2 promoter i-motif or G-quadruplex in the absence or presence of B14 (2, 5, 20 equivalents) and A22 (20 equivalents). The oligonucleotide for BCL-2 i-motif was annealed in 1 X BPES buffer at pH 5.5, while the oligonucleotide for BCL-2 G-quadruplex was annealed in 20 mM Tris-HCl buffer with 20 mM NaCl at pH 7.4. The ΔTm values for the effects of B14 and A22 on BCL-2 promoter i-motif were determined to be 11.26 °C and 11.82 °C, respectively. […]
# [2] = test system: BAX gene transcription in brain of APP/PS1 mice; assay: Real-time RT-PCR of mice brain, BAX; type: in vivo
# Description: Five months old male APP/PS1 mice, weighing 25–33 g, were purchased from Guangdong Medical Laboratory Animal Center and housed in the Laboratory Animal Center of Sun Yat-sen University (Guangzhou, China) for experimentation. […] The mice were housed in a specific pathogen-free environment with a controlled temperature of 22 ± 1 °C and a 12-h dark/light cycle. The mice were fed with a standard diet, and 30 mice were randomly divided into 6 groups (N = 5). […] Behavioral experiments were then conducted, and tissue specimens were collected for biochemical analysis.
# ^a -∆∆Ct = -[(Ct value of genes in treated sample - Ct value of genes in control) - (Ct value of β-actin in treated sample - Ct value of β-actin in control)]. ^b F: The relative expression fold.
# Following sample homogenization, chloroform was added, and the solution was allowed to have phase separation into an upper aqueous layer (containing RNA), an interphase, and a lower organic layer (containing DNA and proteins). RNA was precipitated from the aqueous phase using isopropanol, while DNA was precipitated from the aqueous-organic interphase using ethanol.
# Quantitative real-time polymerase chain reaction (qRT-PCR) was performed using the 2× RealStar SYBR Mixture (GenStar, Cat# A301-10, Guangzhou, China) on a LightCycler 480 II real-time PCR system (Roche, USA). Data were analyzed using the 2^−ΔΔCt method. Actin served as the internal control, and relative mRNA levels were normalized accordingly.
# [3] = test system: MDA, SOD, GSH-Px, CAT in hippocampus of APP/PS1 mice; assay: Biochemical parameters analysis (oxidative stress) in hippocampus; type: in vivo
# From the text: Five months old male APP/PS1 mice, weighing 25–33 g, were purchased from Guangdong Medical Laboratory Animal Center and housed in the Laboratory Animal Center of Sun Yat-sen University (Guangzhou, China) for experimentation. All procedures were approved by the Animal Care and Use Committee of Sun Yat-sen University and complied with legal requirements and national guidelines for the care and maintenance of laboratory animals (Approval No. SYSU-IACUC-2024-002032). The mice were housed in a specific pathogen-free environment with a controlled temperature of 22 ± 1 °C and a 12-h dark/light cycle. The mice were fed with a standard diet, and 30 mice were randomly divided into 6 groups (N = 5). Compound B14 was dissolved in saline and administered at doses of 10, 20, or 40 mg/kg. APP/PS1 male mice were grown until 6 months of age, and then injected intraperitoneally with compound B14 every other day for 60 days. […]
# The hippocampi were homogenized in normal saline containing protease inhibitors. The homogenate was centrifuged at 2500 rpm for 10 min, and the protein concentration in the supernatant was measured by using the bicinchoninic acid (BCA, Beyotime, Jiangsu, China) method. The levels of malondialdehyde (MDA) and the activities of superoxide dismutase (SOD), glutathione peroxidase (GSH-Px) and […] (CAT) were determined by using relevant assay kits (Beyotime, Jiangsu, China).
smiles,measurement,setting,value
O=C(CCN1CCOCC1)Nc1ccc2c(c1)c(=O)c1cc(NC(=O)CCN3CCOCC3)ccc1n2-c1ccc2occc2c1 [Compound B14],Kd,ILPR promoter i-motif,> 50 µM
same,Kd,(G2C4)6 promoter i-motif,33.3 µM
same,Relative TO displacement ratio,BCL-2 promoter i-motif,65% and 65.7%
same,ΔTm (CD melting),[1],−3.13 °C
same,"-∆∆Ct, BAX",[2]; 10 mg/kg,-0.16
same,"F = 2^-∆∆Ct (relative expression fold), BAX",[2]; 10 mg/kg,1.11
same,"-∆∆Ct, BAX",[2]; 20 mg/kg,0.08
same,"F = 2^-∆∆Ct (relative expression fold), BAX",[2]; 20 mg/kg,0.94
same,"-∆∆Ct, BAX",[2]; 40 mg/kg,0.21
same,"F = 2^-∆∆Ct (relative expression fold), BAX",[2]; 40 mg/kg,0.86
same,MDA level,[3],reduce the levels of lipid peroxides MDA
same,levels of antioxidant enzymes,[3],"restore the levels of antioxidant enzymes (SOD, GSH-Px, and CAT)"
